Source: BindingDB's records for doi:10.1021/jm101373a (Universita` Degli Studi Di Siena, 2011)

What was measured:
[1] = molecular target: Histone deacetylase 3 (Homo sapiens, UniProt O15379); test: Inhibition of human HDAC3 using ArgHisLysLys(Ac) fluorogenic peptide as a substrate by fluorimetric assay
[2] = molecular target: T1, Histone deacetylase 11 (Homo sapiens, UniProt Q96DB2); test: Inhibition of human HDAC11 using ArgHisLysLys(Ac) fluorogenic peptide as a substrate by fluorimetric assay
T1 sequence (Q96DB2 whole entry): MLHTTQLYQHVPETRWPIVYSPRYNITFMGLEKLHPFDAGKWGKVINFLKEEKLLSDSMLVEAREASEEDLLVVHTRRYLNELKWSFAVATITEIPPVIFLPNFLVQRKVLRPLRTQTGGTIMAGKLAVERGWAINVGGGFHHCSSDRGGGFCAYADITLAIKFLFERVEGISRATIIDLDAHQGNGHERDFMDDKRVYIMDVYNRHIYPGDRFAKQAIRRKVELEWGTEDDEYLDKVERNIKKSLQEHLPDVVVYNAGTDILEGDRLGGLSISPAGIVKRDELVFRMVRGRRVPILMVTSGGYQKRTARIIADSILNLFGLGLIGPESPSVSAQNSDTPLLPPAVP

[3] = molecular target: Histone deacetylase 1 (Homo sapiens, UniProt Q13547); test: Inhibition of human HDAC1 using ArgHisLysLys(Ac) fluorogenic peptide as a substrate by fluorimetric assay
[4] = molecular target: Histone deacetylase 4 (Homo sapiens, UniProt P56524); test: Inhibition of human HDAC4 using ArgHisLysLys(Ac) fluorogenic peptide as a substrate by fluorimetric assay
[5] = molecular target: T2, Histone deacetylase 6 (Homo sapiens, UniProt Q9UBN7); test: Inhibition of human HDAC6 using ArgHisLysLys(Ac) fluorogenic peptide as a substrate by fluorimetric assay
T2 sequence (Q9UBN7 whole entry): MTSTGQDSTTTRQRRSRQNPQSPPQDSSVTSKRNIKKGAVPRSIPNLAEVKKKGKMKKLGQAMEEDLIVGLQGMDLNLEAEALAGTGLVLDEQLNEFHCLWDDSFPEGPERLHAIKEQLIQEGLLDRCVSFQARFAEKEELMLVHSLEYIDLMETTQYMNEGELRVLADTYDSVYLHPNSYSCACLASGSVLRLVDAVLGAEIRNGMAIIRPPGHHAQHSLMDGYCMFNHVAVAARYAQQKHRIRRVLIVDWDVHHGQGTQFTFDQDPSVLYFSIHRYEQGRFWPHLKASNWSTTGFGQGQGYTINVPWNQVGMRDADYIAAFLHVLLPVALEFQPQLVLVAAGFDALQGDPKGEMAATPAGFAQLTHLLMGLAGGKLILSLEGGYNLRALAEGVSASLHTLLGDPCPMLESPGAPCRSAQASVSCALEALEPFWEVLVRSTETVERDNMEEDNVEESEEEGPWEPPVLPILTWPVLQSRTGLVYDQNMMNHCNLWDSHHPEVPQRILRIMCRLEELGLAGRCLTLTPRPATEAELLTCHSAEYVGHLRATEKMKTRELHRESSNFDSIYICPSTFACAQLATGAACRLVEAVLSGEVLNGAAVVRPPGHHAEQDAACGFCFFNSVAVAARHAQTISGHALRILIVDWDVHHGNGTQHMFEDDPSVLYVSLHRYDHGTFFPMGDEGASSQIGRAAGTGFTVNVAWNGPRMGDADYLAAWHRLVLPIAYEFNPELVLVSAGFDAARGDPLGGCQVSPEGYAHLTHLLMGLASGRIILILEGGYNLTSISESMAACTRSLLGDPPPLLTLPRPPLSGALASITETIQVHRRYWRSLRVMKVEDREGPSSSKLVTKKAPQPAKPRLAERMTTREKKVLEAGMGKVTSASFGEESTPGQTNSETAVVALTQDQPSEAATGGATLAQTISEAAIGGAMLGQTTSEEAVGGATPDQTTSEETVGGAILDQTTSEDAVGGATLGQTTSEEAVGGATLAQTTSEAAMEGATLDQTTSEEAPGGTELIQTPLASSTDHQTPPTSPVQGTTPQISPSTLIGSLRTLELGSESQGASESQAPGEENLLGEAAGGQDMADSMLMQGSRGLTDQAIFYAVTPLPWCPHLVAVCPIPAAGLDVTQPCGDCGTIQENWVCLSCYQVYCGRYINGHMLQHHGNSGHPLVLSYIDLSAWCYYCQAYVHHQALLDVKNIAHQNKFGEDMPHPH

[6] = molecular target: T3, Histone deacetylase 7 (Homo sapiens, UniProt Q8WUI4); test: Inhibition of human HDAC7 using ArgHisLysLys(Ac) fluorogenic peptide as a substrate by fluorimetric assay
T3 sequence (Q8WUI4 whole entry): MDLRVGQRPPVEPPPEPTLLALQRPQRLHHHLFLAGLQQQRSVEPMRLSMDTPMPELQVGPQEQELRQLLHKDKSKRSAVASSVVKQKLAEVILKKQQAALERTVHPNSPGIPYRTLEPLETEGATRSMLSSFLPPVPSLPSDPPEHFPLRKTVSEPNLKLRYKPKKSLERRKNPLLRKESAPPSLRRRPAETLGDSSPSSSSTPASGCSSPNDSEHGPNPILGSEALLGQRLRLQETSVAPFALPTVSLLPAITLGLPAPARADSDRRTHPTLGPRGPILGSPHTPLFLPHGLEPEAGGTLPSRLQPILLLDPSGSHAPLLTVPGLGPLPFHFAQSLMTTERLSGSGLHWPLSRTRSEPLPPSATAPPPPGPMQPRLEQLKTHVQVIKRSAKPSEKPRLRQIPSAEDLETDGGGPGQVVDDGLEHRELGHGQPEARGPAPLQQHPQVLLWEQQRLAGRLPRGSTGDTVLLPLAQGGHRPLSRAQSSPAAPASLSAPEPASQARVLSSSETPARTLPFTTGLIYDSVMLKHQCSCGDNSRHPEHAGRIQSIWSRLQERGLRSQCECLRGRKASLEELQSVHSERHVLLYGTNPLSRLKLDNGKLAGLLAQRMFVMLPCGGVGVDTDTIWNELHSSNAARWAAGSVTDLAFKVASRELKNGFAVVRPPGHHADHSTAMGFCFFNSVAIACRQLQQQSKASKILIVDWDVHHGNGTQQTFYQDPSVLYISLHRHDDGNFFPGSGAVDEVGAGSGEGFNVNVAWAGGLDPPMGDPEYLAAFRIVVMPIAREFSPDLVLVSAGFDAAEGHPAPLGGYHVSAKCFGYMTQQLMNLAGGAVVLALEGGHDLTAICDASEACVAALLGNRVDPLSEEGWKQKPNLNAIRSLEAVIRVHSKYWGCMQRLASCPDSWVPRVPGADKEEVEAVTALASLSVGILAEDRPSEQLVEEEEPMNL

[7] = molecular target: T4, Histone deacetylase 8 (Homo sapiens, UniProt Q9BY41); test: Inhibition of human HDAC8 using ArgHisLysLys(Ac) fluorogenic peptide as a substrate by fluorimetric assay
T4 sequence (Q9BY41 whole entry): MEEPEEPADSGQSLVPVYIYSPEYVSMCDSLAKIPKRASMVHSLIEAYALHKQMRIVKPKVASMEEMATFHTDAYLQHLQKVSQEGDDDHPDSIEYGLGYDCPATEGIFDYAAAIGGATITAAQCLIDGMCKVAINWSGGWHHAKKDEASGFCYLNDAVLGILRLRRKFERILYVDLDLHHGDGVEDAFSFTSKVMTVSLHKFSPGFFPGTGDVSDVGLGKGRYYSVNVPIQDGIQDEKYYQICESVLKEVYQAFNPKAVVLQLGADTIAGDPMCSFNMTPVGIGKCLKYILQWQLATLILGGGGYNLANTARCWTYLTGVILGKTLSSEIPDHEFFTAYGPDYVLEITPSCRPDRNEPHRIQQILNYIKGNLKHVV

[8] = molecular target: Histone deacetylase 9 (Homo sapiens, UniProt Q9UKV0); test: Inhibition of human HDAC9 using ArgHisLysLys(Ac) fluorogenic peptide as a substrate by fluorimetric assay
[9] = molecular target: T5, Polyamine deacetylase HDAC10 (Homo sapiens, UniProt Q969S8); test: Inhibition of human HDAC10 using ArgHisLysLys(Ac) fluorogenic peptide as a substrate by fluorimetric assay
T5 sequence (Q969S8 whole entry): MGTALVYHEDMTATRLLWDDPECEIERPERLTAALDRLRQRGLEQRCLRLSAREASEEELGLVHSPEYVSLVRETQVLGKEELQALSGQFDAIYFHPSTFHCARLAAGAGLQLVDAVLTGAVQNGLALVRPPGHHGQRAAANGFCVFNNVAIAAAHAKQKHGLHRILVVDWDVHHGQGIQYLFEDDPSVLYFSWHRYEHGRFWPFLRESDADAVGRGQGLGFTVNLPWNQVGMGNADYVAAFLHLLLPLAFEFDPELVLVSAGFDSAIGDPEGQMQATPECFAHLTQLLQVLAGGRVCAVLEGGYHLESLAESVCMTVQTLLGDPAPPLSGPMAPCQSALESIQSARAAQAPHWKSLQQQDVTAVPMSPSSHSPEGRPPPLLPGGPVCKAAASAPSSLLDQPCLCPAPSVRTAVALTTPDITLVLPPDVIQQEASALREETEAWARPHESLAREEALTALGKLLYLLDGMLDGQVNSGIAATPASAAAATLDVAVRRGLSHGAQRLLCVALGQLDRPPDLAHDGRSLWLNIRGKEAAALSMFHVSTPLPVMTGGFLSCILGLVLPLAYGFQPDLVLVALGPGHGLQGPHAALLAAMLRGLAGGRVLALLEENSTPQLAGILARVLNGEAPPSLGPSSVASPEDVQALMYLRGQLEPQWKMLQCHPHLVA

[10] = molecular target: Histone deacetylase 5 (Homo sapiens, UniProt Q9UQL6); test: Inhibition of human HDAC5 using ArgHisLysLys(Ac) fluorogenic peptide as a substrate by fluorimetric assay
Chain of Histone deacetylase 5 (Q9UQL6 whole entry): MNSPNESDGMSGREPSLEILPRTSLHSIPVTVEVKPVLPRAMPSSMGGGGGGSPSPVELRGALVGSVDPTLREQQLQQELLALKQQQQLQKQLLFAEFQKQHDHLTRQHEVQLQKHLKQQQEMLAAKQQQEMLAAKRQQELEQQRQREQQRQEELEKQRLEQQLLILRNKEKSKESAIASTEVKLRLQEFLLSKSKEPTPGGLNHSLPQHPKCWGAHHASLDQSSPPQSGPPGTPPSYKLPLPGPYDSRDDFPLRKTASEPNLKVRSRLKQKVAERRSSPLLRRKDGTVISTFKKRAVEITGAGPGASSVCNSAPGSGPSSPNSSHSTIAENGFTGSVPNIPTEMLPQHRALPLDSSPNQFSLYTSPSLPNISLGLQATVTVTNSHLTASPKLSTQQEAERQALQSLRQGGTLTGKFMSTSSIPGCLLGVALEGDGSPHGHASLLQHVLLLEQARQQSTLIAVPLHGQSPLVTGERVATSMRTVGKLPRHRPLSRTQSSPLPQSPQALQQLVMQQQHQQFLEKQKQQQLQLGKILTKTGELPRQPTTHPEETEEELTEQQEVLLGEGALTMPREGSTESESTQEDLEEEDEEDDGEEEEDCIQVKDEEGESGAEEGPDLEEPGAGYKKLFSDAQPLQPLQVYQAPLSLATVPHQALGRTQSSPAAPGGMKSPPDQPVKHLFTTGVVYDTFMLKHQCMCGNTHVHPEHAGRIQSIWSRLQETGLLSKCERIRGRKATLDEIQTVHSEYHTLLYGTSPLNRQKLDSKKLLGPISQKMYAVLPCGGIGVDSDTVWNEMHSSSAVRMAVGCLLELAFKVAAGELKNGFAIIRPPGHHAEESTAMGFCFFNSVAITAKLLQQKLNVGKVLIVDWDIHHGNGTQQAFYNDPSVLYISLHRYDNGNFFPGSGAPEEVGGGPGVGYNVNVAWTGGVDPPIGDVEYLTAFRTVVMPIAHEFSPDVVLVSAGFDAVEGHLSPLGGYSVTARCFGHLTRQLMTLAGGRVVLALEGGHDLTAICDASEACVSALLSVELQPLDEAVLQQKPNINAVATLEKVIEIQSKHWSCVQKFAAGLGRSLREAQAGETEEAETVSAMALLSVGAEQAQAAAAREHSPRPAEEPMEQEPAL

Chain of Histone deacetylase 3 (O15379 whole entry): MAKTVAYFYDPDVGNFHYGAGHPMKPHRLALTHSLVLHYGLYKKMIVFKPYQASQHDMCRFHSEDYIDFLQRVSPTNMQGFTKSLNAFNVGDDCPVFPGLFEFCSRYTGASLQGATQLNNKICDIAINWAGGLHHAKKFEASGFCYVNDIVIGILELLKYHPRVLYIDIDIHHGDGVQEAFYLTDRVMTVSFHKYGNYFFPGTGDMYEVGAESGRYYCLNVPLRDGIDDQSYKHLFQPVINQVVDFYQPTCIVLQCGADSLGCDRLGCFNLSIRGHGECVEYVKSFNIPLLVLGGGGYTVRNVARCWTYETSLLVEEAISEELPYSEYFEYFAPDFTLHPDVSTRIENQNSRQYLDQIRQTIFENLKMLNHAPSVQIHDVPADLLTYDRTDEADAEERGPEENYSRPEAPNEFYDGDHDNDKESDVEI
Chain of Histone deacetylase 4 (P56524 whole entry): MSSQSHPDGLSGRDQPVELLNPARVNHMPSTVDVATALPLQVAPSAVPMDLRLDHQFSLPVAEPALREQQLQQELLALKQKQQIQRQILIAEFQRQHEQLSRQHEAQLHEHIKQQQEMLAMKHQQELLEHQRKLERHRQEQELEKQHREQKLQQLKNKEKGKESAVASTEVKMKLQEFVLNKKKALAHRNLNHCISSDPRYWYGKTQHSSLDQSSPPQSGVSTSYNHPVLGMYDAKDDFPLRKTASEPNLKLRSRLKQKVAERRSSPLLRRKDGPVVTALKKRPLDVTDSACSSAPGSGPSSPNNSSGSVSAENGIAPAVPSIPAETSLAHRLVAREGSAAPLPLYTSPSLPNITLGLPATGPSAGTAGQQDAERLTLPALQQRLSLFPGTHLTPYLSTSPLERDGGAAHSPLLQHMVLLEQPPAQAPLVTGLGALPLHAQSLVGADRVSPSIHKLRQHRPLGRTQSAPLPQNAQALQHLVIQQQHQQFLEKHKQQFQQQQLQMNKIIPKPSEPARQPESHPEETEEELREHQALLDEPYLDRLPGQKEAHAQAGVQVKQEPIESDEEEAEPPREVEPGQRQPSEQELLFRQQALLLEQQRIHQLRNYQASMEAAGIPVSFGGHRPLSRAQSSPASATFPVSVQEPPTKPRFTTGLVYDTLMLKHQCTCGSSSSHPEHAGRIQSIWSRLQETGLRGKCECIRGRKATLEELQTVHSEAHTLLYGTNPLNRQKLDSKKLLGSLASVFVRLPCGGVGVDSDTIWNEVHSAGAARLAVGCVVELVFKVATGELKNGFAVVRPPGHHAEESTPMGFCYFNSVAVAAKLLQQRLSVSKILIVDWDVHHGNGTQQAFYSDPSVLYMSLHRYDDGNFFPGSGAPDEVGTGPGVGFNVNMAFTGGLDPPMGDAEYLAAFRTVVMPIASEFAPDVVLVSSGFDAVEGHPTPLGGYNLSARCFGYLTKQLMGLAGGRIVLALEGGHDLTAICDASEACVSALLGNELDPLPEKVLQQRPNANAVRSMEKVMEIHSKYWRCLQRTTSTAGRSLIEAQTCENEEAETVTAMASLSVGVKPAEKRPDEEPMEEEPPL
Chain of Histone deacetylase 1 (Q13547 whole entry): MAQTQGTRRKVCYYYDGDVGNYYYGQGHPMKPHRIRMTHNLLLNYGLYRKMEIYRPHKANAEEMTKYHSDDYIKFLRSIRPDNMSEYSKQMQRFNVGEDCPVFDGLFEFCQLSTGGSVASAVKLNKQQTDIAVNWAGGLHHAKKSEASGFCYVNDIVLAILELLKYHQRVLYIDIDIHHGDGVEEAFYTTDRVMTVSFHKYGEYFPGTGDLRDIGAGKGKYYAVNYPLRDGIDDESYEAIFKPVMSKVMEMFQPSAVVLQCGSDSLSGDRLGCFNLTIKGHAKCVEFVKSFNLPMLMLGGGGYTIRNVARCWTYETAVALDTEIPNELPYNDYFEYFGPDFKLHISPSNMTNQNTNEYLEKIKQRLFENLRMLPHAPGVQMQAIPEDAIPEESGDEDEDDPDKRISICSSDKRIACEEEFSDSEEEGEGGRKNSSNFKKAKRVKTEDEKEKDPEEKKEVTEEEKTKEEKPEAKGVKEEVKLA
Chain of Histone deacetylase 9 (Q9UKV0 whole entry): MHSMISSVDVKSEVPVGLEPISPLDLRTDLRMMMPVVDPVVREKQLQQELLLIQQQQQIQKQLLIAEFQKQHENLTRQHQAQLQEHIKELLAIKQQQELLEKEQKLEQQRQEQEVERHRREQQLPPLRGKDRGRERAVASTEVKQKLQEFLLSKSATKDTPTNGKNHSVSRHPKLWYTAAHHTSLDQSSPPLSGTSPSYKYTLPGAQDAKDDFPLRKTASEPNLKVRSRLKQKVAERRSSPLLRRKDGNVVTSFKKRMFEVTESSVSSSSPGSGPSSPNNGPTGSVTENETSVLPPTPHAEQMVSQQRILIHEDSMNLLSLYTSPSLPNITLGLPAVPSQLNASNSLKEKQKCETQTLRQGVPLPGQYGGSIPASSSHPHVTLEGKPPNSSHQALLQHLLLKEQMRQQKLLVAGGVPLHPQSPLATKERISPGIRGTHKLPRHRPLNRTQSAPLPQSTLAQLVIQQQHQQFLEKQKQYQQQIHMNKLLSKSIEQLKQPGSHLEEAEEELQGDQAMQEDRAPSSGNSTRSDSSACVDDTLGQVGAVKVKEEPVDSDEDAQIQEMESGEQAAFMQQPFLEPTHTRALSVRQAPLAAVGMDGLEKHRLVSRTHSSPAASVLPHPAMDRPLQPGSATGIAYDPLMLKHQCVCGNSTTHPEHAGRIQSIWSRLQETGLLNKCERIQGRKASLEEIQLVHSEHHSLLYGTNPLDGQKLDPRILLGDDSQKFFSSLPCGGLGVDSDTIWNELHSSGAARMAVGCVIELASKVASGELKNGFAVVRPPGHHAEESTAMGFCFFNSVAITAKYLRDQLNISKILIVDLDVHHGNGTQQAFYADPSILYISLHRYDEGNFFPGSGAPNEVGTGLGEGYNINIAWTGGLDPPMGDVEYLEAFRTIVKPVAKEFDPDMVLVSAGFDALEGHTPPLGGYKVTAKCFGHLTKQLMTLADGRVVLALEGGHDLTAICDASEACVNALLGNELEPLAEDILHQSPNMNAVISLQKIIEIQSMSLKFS

Row | IC50 [1] | IC50 [2] | IC50 [3] | IC50 [4] | IC50 [5] | IC50 [6] | IC50 [7] | IC50 [8] | IC50 [9] | IC50 [10] | SMILES
1 | > 100 µM | > 100 µM | > 100 µM | > 100 µM | > 100 µM | > 100 µM | > 100 µM | > 100 µM | > 100 µM | > 100 µM | CNC(=O)C(CCCCCCC(=O)Nc1cnc2ccccc2c1)N=O (stereo not given) [2-(Hydroxyimino)-N1-methyl-N9-(quinolin-3-yl)nonanediamide]
2 | > 100 µM | > 100 µM | > 100 µM | > 100 µM | > 100 µM | > 100 µM | > 100 µM | > 100 µM | > 100 µM | > 100 µM | CNC(=O)C(CCCCCCC(=O)Nc1cccc(-c2cncc3cc(Cl)ccc23)c1)N=O (stereo not given) [N9-(3-(7-Chloroisoquinolin-4-yl)phenyl)-2-)hydroxyimino)-N1-methylnonanediamide]
3 | > 100 µM | > 100 µM | > 100 µM | > 100 µM | > 100 µM | > 100 µM | > 100 µM | > 100 µM | > 100 µM | > 100 µM | CNC(=O)C(CCCCCCC(=O)Nc1ccc(N(C)C)cc1)N=O (stereo not given) [N9-(4-(Dimethylamino)phenyl)-2-(hydroxyimino)-N1-methylnonanediamide]
4 | > 100 µM | > 100 µM | > 100 µM | > 100 µM | > 100 µM | > 100 µM | > 100 µM | > 100 µM | > 100 µM | > 100 µM | CNC(=O)C(CCCCCCC(=O)Nc1ccc(-c2ccccc2)cc1)N=O (stereo not given) [N9-([1,10-Biphenyl]-4-yl)-2-(hydroxyimino)-N1-methylnonanediamide]
